Patent US9078810B2, “Transdermal delivery system” (Acrux DDS Pty Ltd., priority 2007, dated 2015)
Where two headings read alike, the source gives them in different places.

Assays:
[1] = Finite-dose in vitro diffusion study, Franz-type cells, 24 hours (Example 1); format: in vitro ADME, human; conditions: effect of PEG200 in combination with OS vs 5% OS comparison composition, 2.8% NETA, 0.55% E2, 3.6 μL/cm2
Description: These experiments were performed over 24 hours using Franz-type cells. Pre-cut skin membranes were mounted as a barrier between the halves of greased (high vacuum grease, BDH) horizontal Franz-type permeation cells in the middle of the receptor chamber of the cell with the stratum corneum facing the donor chamber. The area available for permeation was approximately 0.925 cm2. The receptor chambers of the permeation cells were filled with the receptor phase (Phosphate Buffered Saline pH 7.4) and capped. The permeation cells were immersed in a constant temperature water bath such that the receptor chambers were maintained at 35° C. Receptor chamber contents were continuously agitated by small PTFE-coated magnetic stirrer bars driven by submersible magnetic stirrers. The skin was allowed to equilibrate to temperature with receptor solution for 1 h in the water bath prior to dosing.
The formulations were applied to the skin at a dose of 3.6 μL/cm2. The applied formulation was spread over the skin area using an Eppendorf positive displacement pipette tip without breaking the skin membrane. […]

[2] = Estradiol Spray finite-dose in vitro permeation study (Example 7); format: in vitro ADME, human; conditions: 24 h
Description: Finite-dose in vitro permeation studies were undertaken using dermatomed skin (Padgett Model B or S electric dermatome set at 500 μm) prepared from excised […], abdominal skin.
These experiments were conducted over 24 hours (h) using flow-through systems with a 1-cm2 administration area. […] The receptor solution was maintained at a nominal flow rate of 0.5 mL/h by a peristaltic pump (Watson Marlow 520S Peristaltic Pump with 313A adaptor and 308MC 8 roller pump-head; Stauff Corporation, Australia). The cells were placed on a heater bar to keep the temperature of the skin at 32±1° C.
Following a 2-h equilibration of the skin with the receptor solution (RS; 0.002% sodium azide), the stratum corneum surface was dosed with 3.6 μL/cm^2 of an Estradiol Transdermal Spray formulation using a positive displacement pipette. The formulation was spread evenly over the skin area using the pipette tip.
The Estradiol transdermal spray formulations contained:— • Estradiol (E2)+Octyl Salicylate (OS) in Isopropyl Alcohol IPA • E2+OS+Polyethylene glycol (PEG200) in Isopropyl Alcohol IPA • E2+OS+Polyethylene glycol 400 (PEG400) in IPA

[3] = Finite-dose in vitro diffusion study, flow through diffusion cells, 15 μL/cm2 (Example 3); conditions: effect of PEG200 (0.5-2.5%) in combination with 5% OS, 2% TES, 2% PVP, 30% IPA in ethanol, 24 hr
Description: These experiments were performed over 24 hours using stainless steel, flow through diffusion cells based on those described previously (Cooper, E. R. J. Pharm. Sci. 1984, 73, 1153-1156) except that the cell was modified to increase the diffusion area to 1.0 cm2. The formulations were applied using a finite dose technique (Franz, T. J. Curr. Probl. Dermatol., 1978, 7, 58-68) to mimic clinical dosing conditions at an applied dose volume of 15 μL/cm2. […] The receptor solutions (0.002% w/v NaN3) maintained sink conditions below the skin.
The formulations consisted of:— • Comp 1: 2% Testosterone (TES), 5% Octyl Salicylate (OS), 2% polyvinyl pyrrolidine (PVP), 30% isopropyl alcohol (IPA) in ethanol (95%) • Comp 2: 2% TES, 5% OS, 2% PVP, 30% IPA, 0.5% polyethylene glycol 200 (PEG200) in ethanol (95%) • Comp 3: 2% TES, 5% OS, 2% PVP, 30% IPA, 1.0% PEG200 in ethanol (95%) • Comp 4: 2% TES, 5% OS, 2% PVP, 30% IPA, 2.5% PEG200 in ethanol (95%)

[4] = Finite-dose in vitro diffusion study, flow through diffusion cells, 3.6 μL/cm2 (Example 4); conditions: effect of PEG200 (1.0-2.5%) in combination with 5% OS, 5% TES in ethanol (95%), 24 hr
Description: These experiments were performed over 24 hours using stainless steel, flow through diffusion cells based on those described previously (Cooper, E. R. J. Pharm. Sci. 1984, 73, 1153-1156) except that the cell was modified to increase the diffusion area to 1.0 cm2. The formulations were applied using a finite dose technique (Franz, T. J. Curr. Probl. Dermatol., 1978, 7, 58-68) to mimic clinical dosing conditions at an applied dose volume of 3.6 μL/cm2. […] The receptor solutions (0.002% w/v NaN3) maintained sink conditions below the skin.

[5] = format: in vitro ADME, human
Text: The receptor solutions (Phosphate Buffered Saline pH7.4) maintained sink conditions below the skin.
The formulations consisted of:— • Composition (Camp) 1 (Control): 1.35% Nestorone (NES), 0.35% Ethinylestradiol (EE), 5% Octyl Salicylate (OS) in Isopropyl Alcohol (IPA) • Comp 2: 1.35% NES, 0.35% EE, 5% OS, 5% Polyethylene glycol 400 (PEG400) in IPA • Comp 3: 1.35% NES, 0.35% EE, 0.5% Polyethylene glycol (PEG200) in IPA • Comp 4: 1.35% NES, 0.35% EE, 5% OS, 0.5% PEG200 in IPA • Comp 5: 1.35% NES, 0.35% EE, 1% PEG200 in IPA • Comp 6: 1.35% NES, 0.35% EE, 5% OS, 1% PEG200 in IPA • Comp 7: 1.35% NES, 0.35% EE, 2.5% PEG200 in IPA • Comp 8: 1.35% NES, 0.35% EE, 5% OS, 2.5% PEG200 in IPA • Comp 9: 1.35% NES, 0.35% EE, 5% PEG200 in IPA • Comp 10:1.35% NES, 0.35% EE, 5% OS, 5% PEG200 in IPA • Comp 11: 1.35% NES, 0.35% EE, 10% PEG200 in IPA • Camp 12: 1.35% NES, 0.35% EE, 5% OS, 10% PEG200 in IPA

[6] = Diclofenac Transdermal Spray finite-dose in vitro diffusion study (Example 6); format: in vitro ADME, human; conditions: 24 hr
Description: Finite-dose in vitro diffusion studies were undertaken dermatomed skin (Padgett Model B or S electric dermatome set at 500 μm) prepared from excised […], abdominal skin.
These experiments were conducted over 24 hours using flow-through systems with a 1-cm^2 administration area.
Following a 2-h equilibration of the skin with the receptor solution (RS) of phosphate-buffered saline (PBS) pH 7.4, the stratum corneum surface was dosed with a volume of 3.6 μL/cm^2 (unless otherwise indicated) of a test formulation using a positive displacement pipette. The formulation was spread evenly over the skin area using the pipette tip.
The Diclofenac Transdermal Spray formulations were as follows: — • 0.1-2.0% Diclofenac (DIC) diethylamine in Isopropyl alcohol (IPA) [no enhancer] • 0.1-2.0% DIC diethylamine, 5% Octyl Salicylate (OS) in IPA [OS alone] • 0.1-2.0% DIC diethylamine, 2.5% Polyethylene glycol 200 (PEG 200) in IPA [PEG 200 alone] • 0.1-2.0% DIC diethylamine, 5% OS, 2.5% PEG 200 in IPA [OS+PEG 200]
A commercially available Diclofenac gel (approximately 5 mg/cm2) was used as a control. The commercially available gel was applied using a solid cap to simulate the rubbing action required when using the product. Approximately 7 mg gel was applied to the circular surface of a black polypropylene cylindrical cap (Alltech catalogue #98105, diameter 11 mm). […]

## C[C@]12CC[C@@H]3c4ccc(O)cc4CC[C@H]3[C@@H]1CC[C@@H]2O [estradiol, Estradiol]
[1]
  permeation through human epidermis in vitro: significantly enhance
[2]; effect of PEG200 combined with OS in IPA, 3.6 μL/cm^2
  permeation through human skin in vitro: synergistically enhanced
[2]; effect of PEG400 alone and PEG400+OS compared with the control formulation
  permeation through human skin in vitro: no significant effect

## C[C@]12CC[C@H]3[C@@H](CCC4=CC(=O)CC[C@@]43C)[C@@H]1CC[C@@H]2O [Testosterone]
[3]
  permeation through human epidermis in vitro: significantly enhance
[4]
  permeation through human epidermis in vitro: significantly enhance

## C#C[C@]1(O)CC[C@H]2[C@@H]3CCc4cc(O)ccc4[C@H]3CC[C@@]21C [Ethinylestradiol]
[5]
  permeation through human epidermis in vitro: inhibit

## O=C(O)Cc1ccccc1Nc1c(Cl)cccc1Cl [DIC, Diclofenac]
[6]; effect of PEG200 in combination with OS, DIC diethylamine, 5% OS, 2.5% PEG 200 in IPA
  permeation through human epidermis in vitro: significantly enhance
[6]; effect of PEG 400, either alone or in combination with OS
  permeation through human epidermis in vitro: decrease

## C#C[C@]1(OC(C)=O)CC[C@H]2[C@@H]3CCC4=CC(=O)CC[C@@H]4[C@H]3CC[C@@]21C [Norethisterone Acetate]
[1]
  permeation through human epidermis in vitro: significantly enhance

## C=C1C[C@H]2[C@@H]3CCC4=CC(=O)CC[C@@H]4[C@H]3CC[C@]2(C)[C@@]1(OC(C)=O)C(C)=O [Nestorone]
[5]
  permeation through human epidermis in vitro: did not have a significant effect
